Assay results from patent US20070203109A1, “Compounds And Compositions For Treatment Of Cancer” (priority 2004, published 2007).
“Also recorded” adds a separate entry of the source. Like-named read-outs stand apart in the source and are kept apart here.

Columns and labels:
DT-Diaphorase (DTD) = DT-Diaphorase (DTD) (Homo sapiens, UniProt P15559); test: Suitability as substrate for DTD (activation by DTD); format: biochemical
Excerpt: The results of these tests are set out in Table 2.

[1] = test system: DNA of human lymphocytes (PBLs); test: RH1 drug dosimetry in human lymphocytes in vitro (Comet-X assay); format: cell-based
Experimental: Optimal DNA cross-linking is shown in the range 50 to 100 nM RH1.
The Comet assay is a sensitive method of detecting DNA breaks in single cells. The cells are embedded in agarose and spread onto microscope slides. After lysis and de-proteinisation, the cells are subjected to alkaline unwinding at high pH (12.5). The DNA becomes relaxed and unwinds at points where DNA single and double strand breaks occur. The cells are then finally subjected to micro-electrophoresis during which relaxed and damaged DNA migrates away from the nucleus resulting in the classic comet shape when visualised under microscopy. This migration of DNA is retarded when the DNA has been subjected to interstrand cross-linking by drugs such as RH1. In the comet-X assay used in this trial, control non-drug treated lymphocytes from the patient's pre-infusion are subjected to gamma radiation to introduce a fixed number of DNA breaks into each cell. This treatment results in a fixed amount of migration under electrophoresis quantified as the percentage (%) of DNA in the tail of the comet image. Patients lymphocytes exposed to RH1 on infusion are collected and irradiated with the same dose of gamma radiation as the control pre-infusion lymphocytes. […] Results are expressed as % DNA cross linked. […]

physchem [2] = details: buffer, pH 7
solid tumours = test: Phase I clinical trial: safety, tolerability and anti-tumour response; format: in vivo, human
Excerpt: The RH1 trial involved administering RH1 to patients having histologically proven solid tumours that were refractory to conventional treatment or for whom no conventional treatment exists. The WHO performance status of these patients was 0 or 1. WHO performance status is an indicator of a patients overall level of well being/activity. A WHO performance status of 0 means that the patient is fully active, able to carry out all normal activity, without restriction. A WHO performance status of 1 means the patient is restricted in physically strenuous activity but ambulatory and able to carry out work of a light or sedentary nature, e.g. light house work, office work.
(§1) RH1 was administered intravenously on a daily schedule for 5 day periods following a dose escalation scheme. Treatment was repeated on a 21 day cycle. A dose escalation scheme was used to try to establish dose-limiting toxicity. Predicted toxicity includes myelosuppression, emesis, renal toxicity and local injection site irritation. Safety and tolerability were monitored each cycle. Anti-tumour response was assessed after each 2 cycles using RECIST criteria.

clinical = test: clinical; design: species or system human; details: in vivo; for half-life: iv
Experimental: RH-1 is activated by NAD(P)H: Quinone acceptor oxidoreductase (NQO1; DT-diaphorase, DTD). DTD is often over-expressed in lung, colon, liver and breast tumours. RH-1 is undergoing Phase I trial at the Christie Hospital, UK. The pharmacokinetic (PK) requirements of this trial required assays that detect nM levels of RH-1 in serum using LC-MS. The extraction and quantitation of RH-1 from human plasma was validated and a limit of detection of 1 ng/ml reached.
as §1
Patients lymphocytes exposed to RH1 on infusion were analysed using the comet-X assay, which detects DNA interstrand cross-links.

[3] = test system: DNA of peripheral blood lymphocytes; test: Comet-X assay of patients' peripheral blood lymphocytes in the Phase I trial; format: in vivo, human
Excerpt: A modified version of the single cell gel electrophoresis comet assay, the Comet-X, specifically detects DNA cross-linking in individual cells and has been validated for clinical trial use. 9 patients have been treated with RH-1 and PMBCs (peripheral blood lymphocytes) isolated from pre-infusion and post infusion time points on both day 1 and day 5 of treatment were subjected to Comet-X assay (FIG. 2). From the data obtained, accumulative DNA damage appears to be occurring in PBMC's over the 5 day infusion period leading to significant DNA cross linking (30%) by day 5 (FIG. 3). Other PD (pharmacodynamic) assays used in the trial include assessment of DTD levels and activity and RFLP genotyping of the NQO1 gene.
The Comet assay is a sensitive method of detecting DNA breaks in single cells. The cells are embedded in agarose and spread onto microscope slides. After lysis and de-proteinisation, the cells are subjected to alkaline unwinding at high pH (12.5). The DNA becomes relaxed and unwinds at points where DNA single and double strand breaks occur. The cells are then finally subjected to micro-electrophoresis during which relaxed and damaged DNA migrates away from the nucleus resulting in the classic comet shape when visualised under microscopy. This migration of DNA is retarded when the DNA has been subjected to interstrand cross-linking by drugs such as RH1. In the comet-X assay used in this trial, control non-drug treated lymphocytes from the patient's pre-infusion are subjected to gamma radiation to introduce a fixed number of DNA breaks into each cell. This treatment results in a fixed amount of migration under electrophoresis quantified as the percentage (%) of DNA in the tail of the comet image. Patients lymphocytes exposed to RH1 on infusion are collected and irradiated with the same dose of gamma radiation as the control pre-infusion lymphocytes. It was expected that interstrand cross-links produced by RH1 will retard the migration of DNA during electrophoresis resulting in less DNA in the tail of the comet compared to the irradiation only controls. Results are expressed as % DNA cross linked.
To date 12 patients have been treated with RH1 and peripheral blood lymphocytes isolated from pre-infusion and post infusion time points on both day 1 and day 5 of treatment. These lymphocytes have been subjected to the Comet-X assay described above and the amount of DNA present in the tail of the comets following irradiation has been measured. Internal QC samples have been run each time a patients samples have been processed. The data has been pooled into exposure times (short 5-10 minutes, medium 40-120 minutes and long 4-24 hrs exposure) and dose cohorts, (1) 40-135 μg/m^2, (2) 200-326 μg/m^2, (3) 410-810 μg/m^2, and (4) […] ranges for ease of analysis.

physchem [4] = details: 25 °C, aqueous buffer
skin biopsy lesions = test: Comet-X assay on skin biopsy lesions; format: in vivo, human; details: highest cohort treated

DT-Diaphorase (DTD), sequence (P15559 whole entry): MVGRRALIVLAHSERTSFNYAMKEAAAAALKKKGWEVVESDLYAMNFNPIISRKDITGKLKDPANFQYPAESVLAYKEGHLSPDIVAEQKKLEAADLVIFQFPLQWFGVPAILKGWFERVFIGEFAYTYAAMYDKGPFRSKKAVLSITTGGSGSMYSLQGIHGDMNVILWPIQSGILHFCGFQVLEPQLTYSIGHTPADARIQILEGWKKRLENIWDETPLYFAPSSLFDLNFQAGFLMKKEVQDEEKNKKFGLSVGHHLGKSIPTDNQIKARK

For `CCOC(=O)NC1=C(N2CC2)C(=O)C(NC(=O)OCC)=C(N2CC2)C1=O` [AZQ, 3,6-diaziridinyl-2,5-bis-(carboethoxyamino)1,4-benzoquinone], the DTD substrate (DT-Diaphorase (DTD)) was “Moderate”.

In the case of `O=C1C(NCCO)=C(N2CC2)C(=O)C(NCCO)=C1N1CC1` [BZQ, 3,6-diaziridinyl-2,5-bis-2(-hydroxyethylamino)1,4-benzoquinone], the DTD substrate (DT-Diaphorase (DTD)) is reported as “Poor”.

For `Cn1c(/C=C/CO)c(CO)c2c1C(=O)C=C(N1CC1)C2=O` [E09, 3-HYDROXYMETHYL-5-AZIRIDINYL-1METHYL-2-[1H-INDOLE-4,7-DIONE]-PROPANOL], the DTD substrate (DT-Diaphorase (DTD)) was “Moderate”.

In the case of `CO[C@@]12[C@H](COC(N)=O)C3=C(C(=O)C(C)=C(N)C3=O)N1C[C@@H]1N[C@@H]12` [Mitomycin C], the DTD substrate (DT-Diaphorase (DTD)) is reported as “Poor” and the DTD substrate (DT-Diaphorase (DTD); listed as mitomycin C) is reported as “relatively poor substrate”.

With `CC1=C(N2CC2)C(=O)C(CO)=C(N2CC2)C1=O` [RH1, 2,5-diaziridinyl-3-hydroxymethyl-6-methyl-1,4-benzoquinone] the “dose response of DNA cross-linking” value ([1]; PBLs treated 5-100 nM RH1, 2 hours, 37° C., concentration increased to 50 nM) was “increase in DNA cross-linking”, the “RH1 concentration range of optimal DNA cross-linking” value ([1]; human lymphocytes, Comet-X, FIG. 1) was 50 to 100 nM and the half-life (physchem [2]) was greater than 48 h. The “toxicity, patient 5” value (solid tumours; patient 005, 265 μg/m^2/d) was “grade I thrombocytopenia; also recorded: grade I renal impairment”, the “toxicity, patient 007” value (solid tumours; patient 007, dose level 7) was “evidence of toxicity” and the “treatment-related toxicity, first 4 patients” value (solid tumours; patients 001-004, 40-200 μg/m^2/d i.v. daily x5) was “no treatment-related toxicity”. For the same molecule, the Clearance saturability (clinical; human) was “did not appear to be saturable”, the half-life (clinical; human, half-life (clearance from the blood)) was roughly 6 min and the half-life (clinical; human, plasma half-life) was 2 to 12 min. The “relationship between drug dose and area under the curve” value (clinical) was “linear relationship”, the DTD substrate (DT-Diaphorase (DTD)) was “excellent substrate” and the DTD substrate (DT-Diaphorase (DTD); listed as RH-1) was “good substrate”. For the same molecule, the “cross-linking on day 5 compared with day 1” value ([3]; all patients, statistical analysis) was “significantly more cross-linking”, the “DNA cross linking in PBMCs” value ([3]; by day 5 of the 5 day infusion period) was 30% and the “% DNA in the tail (distribution peak)” value ([3]; day 1, similar to irradiated control) was 70-80%. For the same molecule, the “% DNA in the tail (distribution peak)” value ([3]; day 5, PBLC population) was 60-70%, the “degree of cross-linking in PBMCs, highest cohort” value ([3]; highest cohort (1080-1095 mg/m^2), day 5) was 15-20% and the “DNA cross-linking, medium dose cohort” value ([3]; medium dose cohort, day 1 (particularly 4 hr, 24 hr samples) and throughout day 5) was “evidence of DNA cross-linking”. For the same molecule, the “DNA cross-linking, low dose cohort” value ([3]; pooled data, low dose cohort, day 1 or day 5) was “no DNA cross-linking”, the solubility (physchem [4]) was greater than 500 µg/mL and the “Comet-X result on skin biopsy lesions” value (skin biopsy lesions) was “demonstrate efficacy”.
